Here are results for 29 compounds from patent US20150352108A1, “AMINO-PYRIMIDINE COMPOUNDS AS INHIBITORS OF TBK1 AND/OR IKK EPSILON” (Alzheimer's Institute of America, priority 2009, published 2015).

The experiment addresses T1, IKKε (Homo sapiens, UniProt Q14164).
T1 construct: His-tag; made in house; host or cells: Sf9 insect cells
T1 sequence (Q14164 1-716): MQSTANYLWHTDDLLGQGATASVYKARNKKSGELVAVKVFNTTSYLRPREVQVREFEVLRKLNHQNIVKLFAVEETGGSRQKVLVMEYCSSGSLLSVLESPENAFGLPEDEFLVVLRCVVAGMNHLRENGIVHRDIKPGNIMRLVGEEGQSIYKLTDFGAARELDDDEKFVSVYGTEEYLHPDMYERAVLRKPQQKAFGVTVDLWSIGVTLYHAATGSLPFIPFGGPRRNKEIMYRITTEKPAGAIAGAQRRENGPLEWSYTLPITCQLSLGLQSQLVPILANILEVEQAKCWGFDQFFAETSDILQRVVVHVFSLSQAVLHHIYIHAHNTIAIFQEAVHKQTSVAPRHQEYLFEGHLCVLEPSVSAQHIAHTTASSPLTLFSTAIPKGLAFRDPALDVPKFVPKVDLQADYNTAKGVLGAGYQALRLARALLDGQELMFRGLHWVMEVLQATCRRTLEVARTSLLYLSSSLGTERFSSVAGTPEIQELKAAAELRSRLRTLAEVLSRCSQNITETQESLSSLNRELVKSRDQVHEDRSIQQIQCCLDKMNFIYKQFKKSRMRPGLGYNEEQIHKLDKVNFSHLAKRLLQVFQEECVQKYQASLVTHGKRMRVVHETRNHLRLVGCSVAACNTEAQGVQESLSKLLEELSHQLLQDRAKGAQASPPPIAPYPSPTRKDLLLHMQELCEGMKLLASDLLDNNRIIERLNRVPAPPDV
As to the kind of experiment: In-vitro IKKε kinase assay ([γ33]ATP filter-plate). In kind it is biochemical. The following applies: text bins; read-out: IC50 for inhibition of the kinase activity of IKKε. The method, boiled down: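 Phosphorylation of casein or myelin basic protein was counted by P-81 filter capture after 30-45 min reactions stopped with phosphoric acid, with counts normalized to DMSO after background subtraction. ATP was twice Km: 60 μM for TBK1 and 32 μM for IKKε, plus [γ33]ATP. Sf9-expressed His-tag enzymes were used at normal/sensitized levels of 0.1/0.02 μg/ml (TBK1) and 0.1/0.015 μg/ml (IKKε).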

By pIC50 is commonly meant −log10 of the IC50, conventionally taken in molar units.

pIC50: −log10 of the molar value. Some results are limits rather than exact numbers.

Consider `COc1cc(NC(=O)Nc2ccccc2)cc(Nc2nccc(-c3ccc(OC)c(C#N)c3)n2)c1` [compound 364, 1-(3-{[4-(3-Cyano-4-methoxyphenyl)pyrimidin-2-yl]amino}-5-methoxyphenyl)-3-phenylurea], for which the pIC50 was 7.30 to 8.30.
Turning to `COc1ccc(-c2ccnc(Nc3ccc(S(=O)(=O)NCCN(C)C)c(OC)c3)n2)cc1C#N` [compound 384], the pIC50 was 7.30 to 8.30.
As to `CC(C)NCCc1ccc(Nc2nccc(-c3ccc(NC(=O)C(C)C)c(C#N)c3)n2)cc1` [compound 462, N-{2-cyano-4-[2-({4-[2-(propan-2-ylamino)ethyl]phenyl}amino)pyrimidin-4-yl]phenyl}-2-methylpropanamide], the pIC50 was 7.30 to 8.30.
Consider `N#Cc1cccc(-c2ccnc(Nc3ccc(OCC(=O)N4CCOCC4)cc3)n2)c1` [compound 386, 3-[2-({4-[2-(Morpholin-4-yl)-2-oxoethoxy]phenyl}amino)pyrimidin-4-yl]benzonitrile], for which the pIC50 is 6.30 to 7.30.
To `COc1cc(NC(=O)NC2CCCC2)cc(Nc2nccc(-c3ccc(OC4CCN(C(C)=O)CC4)c(C#N)c3)n2)c1` [compound 333, 1-{3-[(4-{4-[(1-Acetylpiperidin-4-yl)oxy]-3-cyanophenyl}pyrimidin-2-yl)amino]-5-methoxyphenyl}-3-cyclopentylurea] belongs 7.30 to 8.30.
On to `CCN1CCN(c2ccc(-c3ccnc(Nc4ccc(N5CCNC(=O)C5)c(OC)c4)n3)cc2C#N)CC1` [Example 36, 2-(4-Ethylpiperazin-1-yl)-5-(2-{[3-methoxy-4-(3-oxopiperazin-1-yl)phenyl]amino}pyrimidin-4-yl)benzonitrile], for which the pIC50 is 6.30 to 7.30.
Take `N#Cc1cc(-c2ccnc(Nc3ccc(S(=O)(=O)Nc4nccs4)cc3)n2)ccc1OC1CCOCC1` [compound 575, 4-({4-[3-Cyano-4-(tetrahydro-2H-pyran-4-yloxy)phenyl]pyrimidin-2-yl}amino)-N-(1,3-thiazol-2-yl) benzenesulfonamide]: the pIC50 is greater than 8.30.
In the case of `CCN(CC)CCN(CC)C(=O)Cc1cccc(Nc2nccc(-c3ccc(NC(=O)C(C)C)c(C#N)c3)n2)c1` [compound 424, N-[2-cyano-4-(2-{[3-(2-{[2-(diethylamino)ethyl] (ethyl)amino}-2-oxoethyl)phenyl]amino}pyrimidin-4-yl)phenyl]-2-methylpropanamide] it was 6.30 to 7.30; in that of `COc1ccc(-c2ccnc(Nc3cc(CN4CCC[C@H]4C(=O)N(C)C)c(OC)c(OC)c3)n2)cc1C#N` [Example 245, 1-(5-{[4-(3-Cyano-4-methoxyphenyl)pyrimidin-2-yl]amino}-2,3-dimethoxybenzyl)-N,N-dimethylprolinamide], 6.30 to 7.30.
`N#Cc1cc(-c2ccnc(Nc3ccc(CN4CCN(CCO)CC4)cc3)n2)ccc1O[C@@H]1CCN(C(=O)CO)C1` [compound 636, 2-{[(3R)-1-(Hydroxyacetyl)pyrrolidin-3-yl]oxy}-5-{2-[(4-{[4-(2-hydroxyethyl)piperazin-1-yl]methyl}phenyl)amino]pyrimidin-4-yl}benzonitrile]: the pIC50 was greater than 8.30.
To `COc1ccc(-c2ccnc(Nc3cccc(NC(=O)NCCO)c3)n2)cc1C#N` [compound 301, 1-(3-{[4-(3-Cyano-4-methoxyphenyl)pyrimidin-2-yl]amino}phenyl)-3-(2-hydroxyethyl)urea] belongs 7.30 to 8.30; to `CC(C)C(=O)Nc1ccc(-c2ccnc(Nc3ccc(N4CCOCC4)cc3)n2)cc1C#N` [Example 267, N-[2-Cyano-4-(2-{[4-(morpholin-4-yl)phenyl]amino}pyrimidin-4-yl)phenyl]-2-methylpropanamide], 7.30 to 8.30; to `CN1CCN(CC(=O)N2CCC(Oc3ccc(-c4ccnc(Nc5ccc(N6CCOCC6)cc5)n4)cc3C#N)CC2)CC1` [Example 240, 2-({1-[(4-methylpiperazin-1-yl)acetyl]piperidin-4-yl}oxy)-5-(2-{[4-(morpholin-4-yl)phenyl]amino}pyrimidin-4-yl)benzonitrile], 6.30 to 7.30.
In the case of `C[C@H](O)C(=O)NCCOc1ccc(-c2ccnc(Nc3ccc(N4CCOCC4)cc3)n2)cc1C#N` [Example 250, (2S)-N-{2-[2-cyano-4-(2-{[4-(morpholin-4-yl)phenyl]amino}pyrimidin-4-yl)phenoxy]ethyl}-2-hydroxypropanamide] it was 6.30 to 7.30; in that of `CC(=O)N1CCC(CCOc2ccc(-c3ccnc(Nc4ccc(N5CCOCC5)cc4)n3)cc2C#N)CC1` [Example 156, 2-[2-(1-acetylpiperidin-4-yl)ethoxy]-5-(2-{[4-(morpholin-4-yl)phenyl}amino}pyrimidin-4-yl)benzonitrile], 7.30 to 8.30; in that of `COc1cc(Nc2nccc(-c3ccc(OCC4CC4)c(C#N)c3)n2)ccc1C(=O)N1CC(OC)C1` [compound 621, 2-(Cyclopropylmethoxy)-5-[2-({3-methoxy-4-[(3-methoxyazetidin-1-yl)carbonyl]phenyl}amino)pyrimidin-4-yl]benzonitrile], greater than 8.30.
In the case of `N#Cc1cc(-c2ccnc(Nc3ccc(N4CCOCC4)cc3)n2)ccc1NC(=O)C1CCOCC1` [Example 97, N-[2-cyano-4-(2-{[4-(morpholin-4-yl)phenyl]amino}pyrimidin-4-yl)phenyl]tetrahydro-2H-pyran-4-carboxamide] it was 6.30 to 7.30; in that of `N#Cc1cccc(-c2ccnc(Nc3ccc4c(c3)CCC4)n2)c1` [Example 198, 3-[2-(2,3-Dihydro-1H-inden-5-ylamino)pyrimidin-4-yl]benzonitrile], 6.30 to 7.30; in that of `N#Cc1cc(-c2ccnc(Nc3ccc(N4CCOCC4)cc3)n2)ccc1NC(=O)N1CCCCC1` [Example 44, N-[2-cyano-4-(2-{[4-(morpholin-4-yl)phenyl]amino}pyrimidin-4-yl)phenyl]piperidine-1-carboxamide], 6.30 to 7.30.
Turning to `CN(C)C(=O)Nc1ccc(-c2ccnc(Nc3ccc(N4CCOCC4)cc3)n2)cc1C#N` [Example 81, 3-[2-cyano-4-(2-{[4-(morpholin-4-yl)phenyl]amino}pyrimidin-4-yl)phenyl]-1,1-dimethylurea], the pIC50 is 6.30 to 7.30.
In the case of `COc1cc(Nc2nccc(-c3ccc(OC4CCNCC4)c(C#N)c3)n2)ccc1S(=O)(=O)NCCCO` [compound 399, 4-({4-[3-cyano-4-(piperidin-4-yloxy)phenyl]pyrimidin-2-yl}amino)-N-(3-hydroxypropyl)-2-methoxybenzene-sulfonamide] it was 7.30 to 8.30; in that of `COc1ccc(-c2ccnc(Nc3ccc(OC)c(OC4CCN(C)CC4)c3)n2)cc1C#N` [Example 289, 2-Methoxy-5-[2-({4-methoxy-3-[(1-methylpiperidin-4-yl)oxy]phenyl}amino)pyrimidin-4-yl]benzonitrile], 6.30 to 7.30.
With `CCC(C)(C)C(=O)Nc1ccc(-c2ccnc(Nc3ccc(N4CCOCC4)cc3)n2)cc1C#N` [Example 77, N-[2-cyano-4-(2-{[4-(morpholin-4-yl)phenyl]amino}pyrimidin-4-yl)phenyl]-2,2-dimethylbutanamide], the pIC50 was 6.30 to 7.30.
As for `COC1CN(c2cccc(Nc3nccc(-c4ccc(O[C@@H]5CCN(C(=O)CO)C5)c(C#N)c4)n3)c2)C1` [compound 639], the pIC50 is greater than 8.30.
Turning to `COc1ccc(-c2ccnc(Nc3cccc(NC(=O)NCCCO)c3)n2)cc1C#N` [compound 310, 1-(3-{[4-(3-Cyano-4-methoxyphenyl)pyrimidin-2-yl]amino}phenyl)-3-(3-hydroxypropyl)urea], the pIC50 is 7.30 to 8.30.
In the case of `COC1CCN(c2cccc(Nc3nccc(-c4ccc(O[C@@H]5CCN(C(=O)CO)C5)c(C#N)c4)n3)c2)C1` (stereo partly drawn) [compound 546, 2-{[(3R)-1-(Hydroxyacetyl)pyrrolidin-3-yl]oxy}-5-(2-{[3-(3-methoxypyrrolidin-1-yl)phenyl]amino}pyrimidin-4-yl)benzonitrile] it was greater than 8.30; in that of `CC(=O)N1CC(Oc2ccc(-c3ccnc(Nc4ccc(N5CCOCC5)cc4)n3)cc2C#N)C1` [Example 53, 2-[(1-acetylazetidin-3-yl)oxy]-5-(2-{[4-(morpholin-4-yl)phenyl]amino}pyrimidin-4-yl)benzonitrile], 6.30 to 7.30; in that of `COc1cc(Nc2nccc(-c3ccc(OC4CCOCC4)c(C#N)c3)n2)ccc1N1CCC(N2CCN(C)CC2)CC1` [compound 514, 5-[2-({3-methoxy-4-[4-(4-methylpiperazin-1-yl)piperidin-1-yl]phenyl}amino)pyrimidin-4-yl]-2-(tetrahydro-2H-pyran-4-yloxy)benzonitrile], 6.30 to 7.30.
`N#Cc1cc(-c2ccnc(Nc3ccc(N4CCOCC4)cc3)n2)ccc1OC1CN(C(=O)CO)C1` [Example 131, 2-{[1-(hydroxyacetyl)azetidin-3-yl]oxy}-5-(2-{[4-(morpholin-4-yl)phenyl]amino}pyrimidin-4-yl)benzonitrile]: the pIC50 was 6.30 to 7.30.
